US20180360855A1, “THE FORMULATION COMPRISING PHOSPHOMYCINE AND ASCORBIC ACID FOR THE TREATMENT OF BACTERIAL URINARY SYSTEM INFECTIONS” (priority 2015, published 2018)

What was measured:
[1] = pH of solutions of Phosphomycine Trometamol with and without ascorbic acid in water; assay type: physicochemical
susceptible bacteria = conditions: cited from earlier work

C[C@@H]1O[C@@H]1P(=O)(O)O [Phosphomycine Trometamol, Phosphomycine trometamol]
pH in 50 ml water ([1]; 5.631 g Phosphomycine Trometamol (+ 1.0 g ascorbic acid) in 50 ml water): 3.608
pH in 100 ml water ([1]; 5.631 g Phosphomycine Trometamol (+ 1.0 g ascorbic acid) in 100 ml water): 3.743
pH in 150 ml water ([1]; 5.631 g Phosphomycine Trometamol (+ 1.0 g ascorbic acid) in 150 ml water): 3.824

C[C@@H]1O[C@@H]1P(=O)(O)O [Phosphomycine]
efficiency in vitro depending on environmental conditions (susceptible bacteria; in the presence of Alkali pH, glycose, phosphate, and sodium chloride): reduced
time in which efficiency on susceptible bacteria is shown (susceptible bacteria; in vitro studies): 30 min
